pIC50: −log10 of the molar value.
Assays:
Runx2, Osteocalcin, Msx2 = experiment: Real time PCR of osteoblast differentiation mark factors; assay type: cell-based, mouse; conditions: C3H/10T1/2 treated for 6 days, RTPCR
Description: (§1) An aliquot 116V and an aliquot 116VI extracted and partitioned from sponges are dissolved in a DMSO solvent, and used to treat the C3H/10T1/2 cell line, mesenchymal progenitor cells, at concentrations of 1, 2.5, 5, 10, and 20 ug/ml. […] Since then, the same experiment was performed on the compound (1163), the compound 2 (1162), the compound 3 (1161), and the compound 4 (1164), which were purely separated from the aliquots 116V and 116VI, and as a result, it could be confirmed that the osteoblast differentiation ability was increased in the compounds 1, 3, and 4. […] To study a mechanism with respect to osteoblast differentiation ability, the C3H/10T1/2 cell lines were treated with the compound 1 and the compound 4 for 6 days, respectively. […] Also, the C3H/10T1/2 cell lines were treated with the compound 1 and the compound 4 for 6 days, respectively. […] Furthermore, it could be ascertained that combining of Runx2 and TAZ proteins was increased by treatment of the compounds and thus the activity of Runx2-meditated transcription was increased. The compound 5, which is an ester derivative of the compound 1 (1163), was synthesized in order to prepare a material having more excellent bioactivity, and the structure of the compound 5 obtained thus was determined. […]

Runx2 and TAZ = experiment: Western blot of osteoblast differentiation mark factors; assay type: cell-based, mouse; conditions: C3H/10T1/2 treated for 6 days
Description: as §1

C3H/10T1/2 cells = experiment: Adipocyte differentiation inhibitory ability (Oil Red O staining); assay type: cell-based, mouse
Description: C3H/10T1/2 cells, which are mouse mesenchymal progenitor cells purchased from ATCC, were diluted in DMEM (Dulbecco's Modified Eagle Medium) medium containing 5.958 g/L HEPES, 3.7 g/L sodium bicarbonate and 10% FBS (fetal bovine serum), and cultured in 24-well culture plates at a density of 4×10^4 cells/well, in the presence of 5% CO2 at 37° C. for 2 days. When the cultured cells were grown to 90˜100% confluency in the culture plates, the cells were cultured in DMEM medium containing 10% FBS, to which 5μ/ml insulin, 1 μM dexamethason, and 5 μM troglitazone were added, in the presence of 5% CO2 at 37° C. for 8 days, to induce differentiation into adipocyte. The medium was exchanged every other day during differentiation. The C3H/10T1/2 cell line, in which differentiation into the adipocyte was induced, was fixed with 3.7% formaldehyde at room temperature for 30 minutes. An oil Red O solution dissolved in isopropanol at a concentration of 0.5% was diluted in distilled water at a ratio of 6:4, filtered through a 0.2 μm filter, and poured to the fixed cell line, which was stained for 1 hour. In order to observe only the cells differentiated into the adiopocyte, the dye solution was removed and the cells were washed with distilled water two times.
116V specimen extracted from sponge was dissolved in DMSO solvent, and allowed to treat C3H/10T1/2 cell lines, which are mouse mesenchymal progenitor cells, at concentrations of 1, 2.5, 5, 10, and 20 μg/ml. […] Then, after specimens of the compound 1 (1163), the compound 2 (1162), the compound 3 (1161), and the compound 4 (1164), which were purely separated from the 116V and 116VI species were obtained, the same experiment was performed. […] Remarkable cytotoxicity was not observed in each of the specimens during differentiation of adipocytes (FIG. 8).

3T3-L1 cells = experiment: Adipocyte differentiation inhibitory ability in 3T3-L1 cells; assay type: cell-based
[1] = Cytotoxicity, Cell Titer-Glo cell viability; assay type: cell-based, mouse; conditions: primary mouse spleen cells; mouse spleen cells, 16-18 hours
Description: (§2) Spleen cells of a mouse were used in measurement of cytotoxicity in […] cells. The spleen cells of the mouse were prepared as follows. The spleen from a 5˜6-week age mouse was finely minced, and only floating spleen cells were filtered through a net having a pore size of 100 μm. Erythrocytes mixed with the spleen cells were lysed by using erythrocyte lysis buffer, and then removed by centrifugation, precipitation and washing of the cells. The prepared spleen cells were seeded in 96-well plates at a concentration of 5×10^5 cells/well. Here, the spleen cells were treated with the compound of Formula 1 for measurement of toxicity according to the concentrations. The next day, the cells cultured for 16-18 hours were treated with Cell Titer-Glo Luminescent Cell Viability Assay (Promega), and after 10 minutes, cell viability was measured using the luminometer.

mouse spleen cells = experiment: Cytotoxicity, Cell Titer-Glo cell viability; assay type: cell-based; conditions: mouse spleen cells vs LXR
Description: as §2

C57BL/6 mice = experiment: Fatty liver inhibitory efficacy in T0901317-induced fatty liver model; assay type: in vivo, mouse
Text: In order to verify the fatty liver inhibitory efficacy of the compound 1 developed in the present invention, C57BL/6 mice were used in this experiment. A fatty liver model was constructed by administering T0901317, which generates fatty liver, to 10-week age C57BL/6 mice while feeding the C57BL/6 mice with general feed-additive. The fatty liver inhibitory efficacy of the compound 1 was observed by orally administering this compound. A mouse fed with 0.75% of only carboxymethylcellulose, as a medication deliver, was used for a negative control group, and a mouse fed with only TO901317 was used for a positive control group. In addition, in order to analyze gene expression of C57BL/6 mouse liver, the mouse livers of the negative control group, the positive control group, and the treatment group were extracted and treated with Trizol, to obtain RNAs. The obtained RNAs were quantified using an absorption spectrometer (Nanodrop), and cDNAs were obtained from RNAs having the same amount among respective groups through an RT-PCR method using oligo dT and reverse transcriptase. The real-time polymerase chain reaction was performed using cDNAs, which were obtained for analysis of mRNA change among groups, as templates, and using primers of transporter genes related to fat synthesis and inflow of fat to the liver. […] Accordingly, the compounds of the present invention and derivatives thereof are expected to play a very innovative role in treatment of alcoholic fatty liver, non-alcoholic fatty liver, and fatty liver due to viral infection.

## CC(C)=CCC/C(C)=C/[C@H]1CC(C)=C[C@@]2(C=C(CO)[C@@H]3CC(=O)C(C)=C[C@@H]3O2)O1 [Compound 1]
Runx2, Osteocalcin, Msx2
  transcription degree of differentiation mark factors (Runx2, Osteocalcin, Msx2, etc.): remarkably increased
Runx2 and TAZ
  protein expression of Runx2 and TAZ: increased
C3H/10T1/2 cells; C3H/10T1/2, 1 μg/ml
  adipocyte differentiation inhibitory ability at low concentration: remarkable adipocyte differentiation inhibitory ability
C3H/10T1/2 cells; C3H/10T1/2, 10 μg/ml
  adipocyte differentiation ability: remarkably decreased
3T3-L1 cells
  adipocyte differentiation inhibitory ability: very superior adipocyte differentiation inhibitory ability
[1]
  pIC50: 4.20
Mouse spleen cells
  cytotoxicity IC50 compared with antagonistic concentration against LXR: ≥ 1000 times
C57BL/6 mice; mouse liver, real-time PCR
  liver expression of fatty acid synthetic genes and transporter genes of transporting fats to the liver: inhibits the expression
C57BL/6 mice; oral administration, T0901317-induced fatty liver, C57BL/6 mice
  fatty liver inhibitory efficacy: very superior fatty liver inhibitory efficacy
C57BL/6 mice; oral administration, fatty liver-induced C57BL/6 mice
  body weight among the treatment group and the control groups: no difference in body weight

From patent publication US8703813B2, “Compound with spiro chiral carbon backbone, preparation method thereof, and pharmaceutical composition containing the same” (SNU R & DB Foundation, priority 2008, dated 2014)
